Test results published in publication PMC6927504, “Screening of House Dust from Chinese Homes for Chemicals with Liver X Receptors Binding Activities and Characterization of Atherosclerotic Activity Using an in Vitro Macrophage Cell Line and ApoE^−/− Mice” (Environmental Health Perspectives, 2019).

Tests used:
[1] = Plasma lipids in ApoE−/− mice; type: in vivo, mouse; conditions: 13 weeks, mean±SE
Description: All experiments related to animals were approved by the institutional animal care and use committee of Peking University and followed the guidelines for animal experiments of the university as well as for experimental animals in China. The biological effect size of the animal experiments was based on the previous paper ([Negro Silva et al. 2017]). C57BL/6 (12 weeks old) and ApoE^−/− mice (12 weeks old) were obtained from the Beijing Vital River Laboratory Animal Technology Company. Mice used in the experiments were acclimated to the housing unit 2 weeks before they were used for experiments, and they were randomly assigned to control or TPHP treatment groups. Five animals were housed to a cage, and mice were acclimatized to the controlled environment (temperature: 22±2°C; relative humidity: 40–60%; artificial lighting: 12 h:12 h light/dark). Mice received diet and drinking water ad libitum. Body weight (BW) was measured every week during the dosing period. Forty-five C57BL/6 mice and 27 ApoE^−/− mice were used in this study. Animal protocol 1: Male C57BL/6 mice (five mice per group) were fed a basic diet (Laboratory Animal Center of the Academy of Military Medical Sciences, China). On Day 0, mice were stimulated with paraffin oil by intraperitoneal injection. From Day 1 to Day 7, mice were exposed to corn oil (control) or TPHP (dissolved in corn oil) at 40 or 200mg/kg BW by daily oral gavage. The volume of the corn oil or TPHP in corn oil administered was 5mL/kg BW. On Day 8, after the mice were anesthetized by sodium pentobarbital via intramuscular injection, peritoneal macrophages were harvested from peritoneal lavage with 4mL pre-warmed DMEM-F12 (containing 10% FBS) using a 25-gauge needle; 5–10 min later, 3–3.5mL peritoneal fluid was collected, and the cells were isolated by centrifuge at 1,000 rpm for 5 min. The isolated cells were cultured in DMEM-F12 containing 10% FBS. After 4 h, the medium was changed, and the cells were cultured overnight. The cells were then used for the qRT-PCR, cellular cholesterol efflux assay, and foam cell formation experiment. The exposure period used in the present study was based on previous studies, in which peritoneal macrophages were harvested from mice treated with chemicals for 4–14 d ([Li et al. 2009]; [Saeed et al. 2012]). Considering that this study assessed the effects of short-term exposure to TPHP, whereas humans are exposed to TPHP over a lifelong period, the present study used exposure doses that were higher than that of human exposure from house dust. Animal protocol 2: Because wild-type mice are highly resistant to atherosclerosis, a well-established atherosclerosis model, the ApoE^−/− mouse, was used in the study. The male ApoE^−/− mice (nine mice per group) were fed a high-fat diet (D12108C; Research Diets Inc.) and exposed to corn oil (control) or TPHP (dissolved in corn oil) at 10 or 40mg/kg BW for 13 weeks by oral gavage. Mice were sacrificed 24 h after the last day of exposure with an overdose of sodium pentobarbital via intraperitoneal injection. Because the formation of atherosclerosis lesions required a long time, the exposure period used in the present study was based on previous studies in which the effects of chemicals on formation of atherosclerosis lesions were observed after an exposure period of 12–15 weeks ([Li et al. 2009]; [Negro Silva et al. 2017]; [Shi et al. 2016]). The doses of TPHP used in the ApoE^−/− model mouse referred to previous studies in which mice were treated with TPHP at 50–300mg/kg BW to observe significant adverse effects, including decreased testosterone levels and hypertriglyceridemia ([Chen et al. 2015]; [Morris et al. 2014]).
Treated ApoE^−/− mice ( n=9 per group) were fasted overnight, and heart puncture was used to collect the blood soon after each animal was sacrificed. The blood samples were then centrifuged ( 1,000×g , 10 min, 4°C) to separate the plasma, and the plasma was stored at −80°C . […]

[2] = tested on: peroxisome proliferator-activated receptor-γ (PPARγ); set-up: method as in Hu et al. 2017; Pillai et al. 2014; conditions: ref Hu et al. 2017; Pillai et al. 2014; cited from earlier work
[3] = 40mg/kg, n=9, p<0.05 vs control

O=P(Oc1ccccc1)(Oc1ccccc1)Oc1ccccc1 [TPHP, triphenyl phosphate]
Plasma HDL-C ([1]; 10mg/kg, n=9): 1.13 ± 0.05 mmol/L
Plasma LDL-C ([1]; 10mg/kg, n=9): 10.53 ± 0.32 mmol/L
Plasma cholesterol ([1]; 10mg/kg, n=9): 26.15 ± 1.34 mmol/L
Plasma triglycerides ([1]; 10mg/kg, n=9): 0.92 ± 0.06 mmol/L
Plasma HDL-C ([1]; 40mg/kg, n=9): 1.29 ± 0.05 mmol/L
Plasma LDL-C ([1]; 40mg/kg, n=9): 10.27 ± 0.22 mmol/L
Plasma cholesterol [1, 3]: 28.83 ± 1.90 mmol/L
Plasma triglycerides [1, 3]: 1.06 ± 0.12 mmol/L
PPARγ activity [2]: agonist
